Results reported in patent US10301320B2, “Compositions and methods of modulating 15-PGDH activity” (CASE WESTERN RESERVE UNIVERSITY, priority 2012, dated 2019).
“Also recorded” adds a separate entry of the source. Read-outs that look alike come from different tables or passages of the source. One block for each compound: values may come before it.

Experiments:
[1] = tested on: V9m reporter cell line expressing a 15-PGDH luciferase fusion construct; assay: 15-PGDH-luciferase fusion gene reporter induction, V9m cell line; assay type: cell-based; settings: […]; for percent reporter induction over basal at […]: read-out: V9M-SC3 Reporter activity % ([…]), Table 18, read-out: V9M-SC3 Reporter activity % (7.5 μM); for activation at […]: read-out: V9M-SC3 Reporter activity ([…]) (%), Table 18, read-out: V9M-SC3 Reporter activity (2.5 μM) (%); for V9M reporter activity ([…]): % increased luciferase activity over basal level
Excerpt: (§1) These cell lines are Vaco-9m (V9m), LS174T, Vaco503 (V503). […] Value of 1.0 on the Y-axis is the basal level of reporter activity in cells treated with drug free DMSO vehicle.
(§2) This Example provides data on a group of structural analogues of SW033291. Data provided includes level of induction of a 15-PGDH-luciferase fusion gene reporter, recorded as % increased luciferase activity over basal level, in three colon cancer cell lines, V9m, V503, and LS174T, engineered to contain the reporter, and treated with either 2.5 uM or 7.5 uM compound (i.e., Values are recorded on a scale where 100 indicates of doubling of luciferase activity over baseline level).
(§3) FIGS. 27(A-C) show graphs that show the level of compound's activity in inducing the 15-PGDH-luciferase fusion reporter in three different test cell line backgrounds, V9m, LS174T, and V503. Each compound was tested at two concentrations, 2.5 uM, and 7.5 uM. Y-axis is luciferase activity.
(§4) Data provided include level of induction of a 15-PGDH-luciferase fusion gene reporter, recorded as % induction of luciferase activity over basal level, in three colon cancer cell lines, V9m, V503, and LS174T, engineered to contain the reporter, and treated with either 2.5 uM or 7.5 uM compound. […] Additionally, for selected compounds is recorded the decrease in PGE2 levels in the media of compound treated A549 cells that have been stimulated with IL-1 beta. Additionally recorded for selected compounds is the effect on A549 cell viability as measured by a CellTiter-Glo assay, and the effect of compounds on A549 cell colony formation.

[2] = tested on: LS174T reporter cell line expressing a 15-PGDH luciferase fusion construct; assay: 15-PGDH-luciferase fusion gene reporter induction, LS174T cell line; assay type: cell-based; settings: Homo sapiens
Excerpt: as §1, §2, §3, §4

[3] = tested on: Vaco503 reporter cell line expressing a 15-PGDH luciferase fusion construct; assay: 15-PGDH-luciferase fusion gene reporter induction, Vaco503 (V503) cell line; assay type: cell-based; settings: read-out: V503-3H9-7 reporter activity, % ([…]), Table 18, […]
Excerpt: as §1, §2, §3, §4

[4] = target: T1, recombinant 15-PGDH protein (Homo sapiens (Human), UniProt P15428); assay: Inhibition of enzymatic activity of recombinant 15-PGDH in vitro; assay type: biochemical;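 also: activity of recombinant human 15-PGDH assayed in vitro using PGE2 as the substrate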
[5] = tested on: wild-type mouse bone marrow; assay: Hematopoietic colonies from bone marrow treated ex vivo; assay type: cell-based; settings: 1 uM, ex vivo on ice for 2 hours; compared with SW033291
Excerpt: Treated marrow is again then plated into methylcellulose for counting of hematopoietic colonies.

[6] = tested on: 15-PGDH-luciferase fusion reporter in V9m, LS174T and V503 cell lines; assay: 15-PGDH-luciferase fusion gene reporter induction in three colon cancer cell lines (stated jointly); assay type: cell-based
[7] = target: T1, recombinant 15-PGDH protein; assay: Melting temperature shift of recombinant 15-PGDH (SYPRO Orange); assay type: binding
[8] = tested on: 15-PGDH mRNA in colon cancer cell lines; assay: 15-PGDH mRNA levels by real-time PCR; assay type: cell-based; settings: treated colon cancer cell lines, real-time PCR
Excerpt: In these studies parental cell lines (not containing the 15-PGDH-luciferase reporter) are employed.

A549 cells [9] = assay: PGE2 levels in medium of IL1-beta stimulated A549 cells; assay type: cell-based; settings: for Effect on PGE2 levels in medium, in words: IL1-beta stimulated A549 cells; for PGE2 levels achieved: IL-1β 16 h, compound 8 h, highest level of titration; for Reduction in levels of PGE2 in the medium, ranking: 15-PGDH activators
A549 cells [10] = assay: Cellular toxicity on A549 cells (CellTiter-Glo, cell numbers); assay type: cell-based
Description: Time to inhibition refers to the time needed to inhibit the generation of NADH by 15-PGDH from the moment with drug is added into the reaction mix. Delta™ refers to the shift in melting temperature of recombinant 15-PGDH in the presence of drug (with cofactor NADH also present). Concentration of Full Cell Line Reporter Induction refers to the concentration of drug that needs to be added to reporter cell line to achieve maximal induction of the 15-PGDH-luciferase gene fusion reporter cassette, as measured by luciferase assays. Hepatocyte stability refers to the half-life of compound in the presence of hepatocytes in culture. Toxicity refers to the concentration of compound needed to decrease cell numbers in a cell culture assay.
FIGS. 38(A-C) show assays of cellular toxicity on A549 cells at 24 hours of 15-PGDH inhibitors as assayed by CellTiter-Glo measurement.
FIGS. 84(A-C) show at left (84A) activity in lowering PGE2 levels in media of A549 cells that are stimulated to produce PGE2 by treatment with IL1-beta.

[11] = read-out: Ls174T-SC1 reporter activity, % ([…]), Table 18, […], read-out: Ls174T-SC1 reporter activity, % (2.5μM)
[12] = read-out: Ls174T-SC1 reporter activity, % ([…]), Table 18, […], read-out: Ls174T-SC1 reporter activity, % (7.5 μM)
[13] = read-out: V503-3H9-7 reporter activity, % (2.5 μM)
[14] = read-out: V503-3H9-7 reporter activity, % (7.5 μM)
[15] = read-out: Enzyme inhibition % ([…]), Table 18, […] compound, read-out: Enzyme inhibition % (2.5 μM)
[16] = read-out: Enzyme inhibition % ([…]), Table 18, […] compound, read-out: Enzyme inhibition % (7.5 μM)
[17] = read-out: Enzyme inhibition % ([…]), recombinant 15-PGDH, […] compound, read-out: Enzyme inhibition % (2.5 μM)
[18] = read-out: Enzyme inhibition % ([…]), recombinant 15-PGDH, […] compound, read-out: Enzyme inhibition % (7.5 μM)

T1 sequence (P15428 whole entry): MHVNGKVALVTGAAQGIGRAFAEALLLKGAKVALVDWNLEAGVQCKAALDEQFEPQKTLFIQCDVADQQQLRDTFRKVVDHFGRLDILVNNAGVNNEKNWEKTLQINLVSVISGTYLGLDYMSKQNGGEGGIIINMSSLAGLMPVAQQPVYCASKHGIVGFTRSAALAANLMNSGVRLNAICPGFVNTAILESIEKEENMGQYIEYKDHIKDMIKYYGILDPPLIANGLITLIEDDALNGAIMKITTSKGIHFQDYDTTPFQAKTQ

Compound: COc1ccc(C)cc1N(CC(=O)Nc1cccnc1)S(=O)(=O)c1ccccc1 [526206-05-3]
percent reporter induction over basal at […] [1]: 114%
activation at […] [1]: 23.1%
activation at […] [2, 11]: 68.5%
activation at […] [2, 12]: 146%
activation at […] [3, 13]: 110%
activation at […] [3, 14]: 198%
inhibition at […] [4, 15]: 42%
inhibition at […] [4, 16]: 70.2%

Compound: COc1ccc(N(CC(=O)Nc2cccnc2)S(=O)(=O)c2ccccc2)cc1C [592469-85-7]
percent reporter induction over basal at […] [1]: 18.5%
activation at […] [1]: -9.74%
activation at […] [2, 11]: 3.77%
activation at […] [2, 12]: 14%
activation at […] [3, 13]: 10.2%
activation at […] [3, 14]: 5.3%
inhibition at […] [4, 15]: 6.23%
inhibition at […] [4, 16]: 17.2%

Compound: CCCCC[C@H](O)/C=C/[C@H]1[C@H](O)CC(=O)[C@@H]1C/C=C\CCCC(=O)O [PGE2, prostaglandin E2]
Increase in bone marrow derived colonies, in words [5]: lesser increase

Compound: COc1ccc(OC)c(N(CC(=O)Nc2cccnc2)S(=O)(=O)c2ccccc2)c1 [SW054384]
Induction of 15-PGDH-luciferase reporter, in words [6]: increase luciferase activity
IC50 fold higher than that of SW033291 ([4]; FIG. 12): 10,000 fold
inhibition at […] [4, 17]: 20.2%
inhibition at […] [4, 18]: 58.2%
Direct binding to recombinant 15-PGDH ([7]; melting temperature shift): cannot be demonstrated to bind 15-PGDH
15-PGDH mRNA levels [8]: do not in general alter 15-PGDH mRNA levels
Effect on PGE2 levels in medium, in words (A549 cells [9]): lower level of PGE2 produced; also recorded: show activity in lowering PGE2

Compound: O=C(c1ccc2nc(-c3ccccc3)c(-c3ccccc3)nc2c1)N1CCCCC1 [SW145753]
Induction of 15-PGDH-luciferase reporter, in words [6]: increase luciferase activity
15-PGDH mRNA levels [8]: do not in general alter 15-PGDH mRNA levels
Effect on PGE2 levels in medium, in words (A549 cells [9]): clear inhibition of 15-PGDH activity

Compound: COc1ccc(OC)c(N(CC(=O)Nc2csnc2C)S(=O)(=O)c2ccccc2)c1 [SW203703]
Induction of 15-PGDH-luciferase reporter, in words [6]: active in inducing the 15-PGDH-luciferase reporter
inhibition at […] [4, 17]: 26.5%
inhibition at […] [4, 18]: 58.9%
Effect on PGE2 levels in medium, in words (A549 cells [9]): show activity in lowering PGE2

Compound: COc1ccc(OC)c(N(CC(=O)Nc2cc(C)no2)S(=O)(=O)c2ccccc2)c1 [SW203704]
Induction of 15-PGDH-luciferase reporter, in words [6]: active in inducing the 15-PGDH-luciferase reporter
inhibition at […] [4, 17]: 4.19%
inhibition at […] [4, 18]: 7.26%

Compound: CCCC[S+]([O-])c1sc2nc(-c3cccs3)ccc2c1N (stereo not shown) [SW206980, 2-(butylsulfinyl)-6-(thiophen-2-yl)thieno[2,3-b]pyridin-3-amine]
V9M reporter activity ([…]) [1]: 92.71%
V9M reporter activity ([…]) ([1]; 100 = doubling): 99.37%
Induction of 15-PGDH-luciferase reporter, in words [6]: highly active compound in reporter induction; also recorded: activity comparable to SW033291
PGE2 levels achieved (A549 cells [9]): 2500 pg/mL

Compound: CCCC[S+]([O-])c1sc2nc(-c3nccs3)ccc2c1N (stereo not shown) [SW206992, 2-(butylsulfinyl)-6-(thiazol-2-yl)thieno[2,3-b]pyridin-3-amine]
V9M reporter activity ([…]) [1]: 121.75%
V9M reporter activity ([…]) ([1]; 100 = doubling): 86.44%
Concentration for Full Cell Line Reporter Induction ([6]; maximal induction of reporter, printed in uM): >1 µM
Time to inhibition (10 nM) ([4]; time needed to inhibit generation of NADH after drug is added): ~2 min
Melting temperature ([7]; 15-PGDH 10 uM, compound 20 uM, NAD(+) 100 uM, control 49): 59 degrees
PGE2 levels achieved (A549 cells [9]): 2100 pg/mL
Toxicity, CellTiter-Glo (A549 cells [10]; 24 hours, up to 10 uM in FIG. 38): No effect on CellTitre-Glo levels
Toxicity (A549 cells [10]; concentration needed to decrease cell numbers in a cell culture assay): >7.5 µM

Compound: CCCC[S+]([O-])c1sc2nc(-c3nccs3)cc(-c3ccccc3)c2c1N (stereo not shown) [SW208066, 2-(butylsulfinyl)-4-phenyl-6-(thiazol-2-yl)thieno[2,3-b]pyridin-3-amine]
V9M reporter activity ([…]) [1]: 111.63%
V9M reporter activity ([…]) ([1]; 100 = doubling): 122.72%
PGE2 levels in the medium, ranking (A549 cells [9]; 100 nM drug, 15-PGDH inhibitors): highest levels of PGE2

Compound: C[S+]([O-])c1sc2nc(-c3cccs3)cc(-c3ccccc3)c2c1N (stereo not shown) [SW208079, 2-(methylsulfinyl)-4-phenyl-6-(thiophen-2-yl)thieno[2,3-b]pyridin-3-amine]
Induction of 15-PGDH-luciferase reporter, in words [6]: marked loss of activity in inducing the cell line reporters

The next lines start with results.

inhibition at […] [4, 17]: 24.3%
inhibition at […] [4, 18]: 63.3%
Compound: COc1ccc(S(=O)(=O)N(CC(=O)Nc2cccnc2)c2cc(OC)ccc2OC)cc1 [SW202940]
Induction of 15-PGDH-luciferase reporter, in words [6]: active in inducing 15-PGDH-luciferase reporter activity

inhibition at […] [4, 17]: 1.7%
inhibition at […] [4, 18]: 24.9%
Compound: COc1ccc(OC)c(N(CC(=O)Nc2cccnc2)S(=O)(=O)c2ccc(F)cc2)c1 [SW203736]
Induction of 15-PGDH-luciferase reporter, in words [6]: active in inducing 15-PGDH-luciferase reporter activity; also recorded: active in inducing the 15-PGDH-luciferase reporter
Inhibition of recombinant 15-PGDH, in words [4]: lesser inhibitory activity at high concentration
Effect on PGE2 levels in medium, in words (A549 cells [9]): show activity in lowering PGE2

inhibition at […] [4, 17]: 23.8%
inhibition at […] [4, 18]: 42.5%
Compound: COc1ccc(OC)c(N(CC(=O)Nc2cccnc2)S(=O)(=O)c2ccc(Br)cc2)c1 [SW203737]
Induction of 15-PGDH-luciferase reporter, in words [6]: active in inducing 15-PGDH-luciferase reporter activity; also recorded: active in inducing the 15-PGDH-luciferase reporter
Effect on PGE2 levels in medium, in words (A549 cells [9]): show activity in lowering PGE2

inhibition at […] [4, 17]: -7.08%
inhibition at […] [4, 18]: -0.86%
Compound: COc1ccc(S(=O)(=O)N(CC(=O)N2CCOCC2)c2cc(OC)ccc2OC)cc1 [SW207997]
Induction of 15-PGDH-luciferase reporter, in words [6]: activity equal to, or in some assays greater than, SW054384; also recorded: active in inducing the 15-PGDH-luciferase reporter
Inhibition of recombinant 15-PGDH, in words [4]: much less inhibition of enzymatic activity of 15-PGDH; also recorded: lesser inhibitory activity at high concentration
Reduction in levels of PGE2 in the medium, ranking (A549 cells [9]; 100 nM drug): greatest reduction in levels of PGE2

inhibition at […] [4, 17]: 8.09%
inhibition at […] [4, 18]: 14.4%
Compound: COc1ccc(S(=O)(=O)N(CC(=O)N2CCCCCC2)c2cc(OC)ccc2OC)cc1 [SW207998]
Induction of 15-PGDH-luciferase reporter, in words [6]: activity equal to, or in some assays greater than, SW054384; also recorded: active in inducing the 15-PGDH-luciferase reporter
Inhibition of recombinant 15-PGDH, in words [4]: much less inhibition of enzymatic activity of 15-PGDH; also recorded: lesser inhibitory activity at high concentration
Reduction in levels of PGE2 in the medium, ranking (A549 cells [9]; 100 nM drug): greatest reduction in levels of PGE2

inhibition at […] [4, 17]: -0.86%
inhibition at […] [4, 18]: 3.34%
Compound: COc1ccc(S(=O)(=O)N(CC(=O)N2CCCCC2)c2cc(OC)ccc2OC)cc1 [SW207999]
Induction of 15-PGDH-luciferase reporter, in words [6]: active in inducing the 15-PGDH-luciferase reporter
Inhibition of recombinant 15-PGDH, in words [4]: lesser inhibitory activity at high concentration
